From PubChem BioAssay AID1259407 (Chemical Carcinogenesis Research Information System (CCRIS), 2018) come the findings set out here.

The structures appear in SMILES notation. Active and inactive are the calls of the source. How the calls were made is not given here.

The test system of the series is CCRIS mutagenicity, Ames/micronucleus/aberration tests. Description: CCRIS mutagenicity studies.
[1] abbreviates: Test System: AMES SALMONELLA TYPHIMURIUM, Strain/Indicator: TA98, Metabolic Activation: NONE, Method: STANDARD PLATE.

Take `CCC(C)Nc1ccc(NC(C)CC)cc1` (stereo unspecified): the mutagenic call runs as follows: (End Point: IN VITRO CHROMOSOMAL ABERRATIONS, Test System: CHINESE HAMSTER LUNG CELLS (CHL), Metabolic Activation: RAT, LIVER, S-9, KC-400) “inactive; negative”; (End Point: IN VITRO CHROMOSOMAL ABERRATIONS, Test System: CHINESE HAMSTER OVARY CELLS (CHO), Metabolic Activation: NONE) “inactive; negative”; (End Point: IN VITRO CHROMOSOMAL ABERRATIONS, Test System: CHINESE HAMSTER OVARY CELLS (CHO), Metabolic Activation: RAT, LIVER, S-9, AROCLOR 1254) “inactive; negative”; (Test System: AMES SALMONELLA TYPHIMURIUM, Strain/Indicator: TA97, Metabolic Activation: HAMSTER, LIVER, S-9, AROCLOR 1254 (10%), Method: PREINCUBATION) “inactive; negative”; (Test System: AMES SALMONELLA TYPHIMURIUM, Strain/Indicator: TA97, Metabolic Activation: HAMSTER, LIVER, S-9, AROCLOR 1254 (30%), Method: PREINCUBATION) “inactive; negative”; (Test System: AMES SALMONELLA TYPHIMURIUM, Strain/Indicator: TA97, Metabolic Activation: NONE, Method: PREINCUBATION) “inactive; negative”. For the same molecule, the mutagenic call is, setting by setting: (Test System: AMES SALMONELLA TYPHIMURIUM, Strain/Indicator: TA97, Metabolic Activation: RAT, LIVER, S-9, AROCLOR 1254 (10%), Method: PREINCUBATION) “inactive; negative”; (Test System: AMES SALMONELLA TYPHIMURIUM, Strain/Indicator: TA97, Metabolic Activation: RAT, LIVER, S-9, AROCLOR 1254 (30%), Method: PREINCUBATION) “inactive; negative”; (Test System: AMES SALMONELLA TYPHIMURIUM, Strain/Indicator: TA98, Metabolic Activation: HAMSTER, LIVER, S-9, AROCLOR 1254 (10%), Method: PREINCUBATION) “inactive; negative”; (Test System: AMES SALMONELLA TYPHIMURIUM, Strain/Indicator: TA98, Metabolic Activation: HAMSTER, LIVER, S-9, AROCLOR 1254 (30%), Method: PREINCUBATION) “inactive; negative”; (Test System: AMES SALMONELLA TYPHIMURIUM, Strain/Indicator: TA98, Metabolic Activation: NONE, Method: PREINCUBATION) “inactive; negative”; (Test System: AMES SALMONELLA TYPHIMURIUM, Strain/Indicator: TA98, Metabolic Activation: RAT, LIVER, S-9, AROCLOR 1254 (10%), Method: PREINCUBATION) “inactive; negative”. Moreover, the mutagenic call is “inactive; negative” (Test System: AMES SALMONELLA TYPHIMURIUM, Strain/Indicator: TA98, Metabolic Activation: RAT, LIVER, S-9, AROCLOR 1254 (30%), Method: PREINCUBATION); “inactive; negative” (Test System: AMES SALMONELLA TYPHIMURIUM, Strain/Indicator: TA100, Metabolic Activation: HAMSTER, LIVER, S-9, AROCLOR 1254 (5%), Method: PREINCUBATION); “inactive; negative” (Test System: AMES SALMONELLA TYPHIMURIUM, Strain/Indicator: TA100, Metabolic Activation: HAMSTER, LIVER, S-9, AROCLOR 1254 (10%), Method: PREINCUBATION); “inactive; negative” (Test System: AMES SALMONELLA TYPHIMURIUM, Strain/Indicator: TA100, Metabolic Activation: HAMSTER, LIVER, S-9, AROCLOR 1254 (30%), Method: PREINCUBATION); “inactive; negative” (Test System: AMES SALMONELLA TYPHIMURIUM, Strain/Indicator: TA100, Metabolic Activation: NONE, Method: PREINCUBATION); “inactive; negative” (Test System: AMES SALMONELLA TYPHIMURIUM, Strain/Indicator: TA100, Metabolic Activation: RAT, LIVER, S-9, AROCLOR 1254 (5%), Method: PREINCUBATION). The mutagenic call (Test System: AMES SALMONELLA TYPHIMURIUM, Strain/Indicator: TA100, Metabolic Activation: RAT, LIVER, S-9, AROCLOR 1254 (30%), Method: PREINCUBATION) is “inactive; negative”; the mutagenic call (Test System: AMES SALMONELLA TYPHIMURIUM, Strain/Indicator: TA100, Metabolic Activation: RAT,LIVER, S-9, AROCLOR 1254 (10%), Method: PREINCUBATION) was “inactive; negative”; the mutagenic call (Test System: AMES SALMONELLA TYPHIMURIUM, Strain/Indicator: TA1535, Metabolic Activation: HAMSTER, LIVER, S-9, AROCLOR 1254 (10%), Method: PREINCUBATION) was “inactive; negative”; the mutagenic call (Test System: AMES SALMONELLA TYPHIMURIUM, Strain/Indicator: TA1535, Metabolic Activation: HAMSTER, LIVER, S-9, AROCLOR 1254 (30%), Method: PREINCUBATION) is “inactive; negative”; the mutagenic call (Test System: AMES SALMONELLA TYPHIMURIUM, Strain/Indicator: TA1535, Metabolic Activation: NONE, Method: PREINCUBATION) was “inactive; negative”; the mutagenic call (Test System: AMES SALMONELLA TYPHIMURIUM, Strain/Indicator: TA1535, Metabolic Activation: RAT, LIVER, S-9, AROCLOR 1254 (10%), Method: PREINCUBATION) is “inactive; negative”. For the same molecule, where the note is “Test System: AMES SALMONELLA TYPHIMURIUM, Strain/Indicator: TA1535, Metabolic Activation: RAT, LIVER, S-9, AROCLOR 1254 (30%), Method: PREINCUBATION”, the mutagenic call is “inactive; negative”.
Turning to `Nc1c2ccccc2nc2ccc(I)cc12`, the mutagenic call (Test System: AMES SALMONELLA TYPHIMURIUM, Strain/Indicator: TA1537, Metabolic Activation: NONE, Method: PREINCUBATION) was “active; positive”.
As to `O[C@H]1C=Cc2c(cc3c4c(cc5ccccc53)-c3ccccc3-c24)[C@@H]1O`, the mutagenic call (Test System: AMES SALMONELLA TYPHIMURIUM, Strain/Indicator: TA100, Metabolic Activation: MOUSE, LIVER, S-9, 3-METHYLCHOLANTHRENE, Method: STANDARD PLATE) was “active; positive” and the mutagenic call (Test System: AMES SALMONELLA TYPHIMURIUM, Strain/Indicator: TA100, Metabolic Activation: RAT, LIVER, S-9, 3-METHYLCHOLANTHRENE, Method: STANDARD PLATE) was “active; positive”.
For `C1CC[CH]([Sn]([CH]2CCCCC2)[CH]2CCCCC2)CC1`, the mutagenic call is, setting by setting: (Test System: UDS HUMAN PERIPHERAL BLOOD LYMPHOCYTES, Strain/Indicator: THY INCORP, Metabolic Activation: NONE, Method: LIQUID SCINTILLATION) “inactive; negative”; (Test System: UDS HUMAN PERIPHERAL BLOOD LYMPHOCYTES, Strain/Indicator: THY INCORP, Metabolic Activation: RAT, LIVER, S-9, PHENOBARBITAL AND BETA-NAPHTHOFLAVONE, Method: LIQUID SCINTILLATION) “inactive; negative”.
For `CC(=O)ON(C(C)=O)c1ccc(Sc2ccccc2)cc1`, the mutagenic call runs as follows: (Test System: AMES SALMONELLA TYPHIMURIUM, Strain/Indicator: TA98(1,8-DNP6), Metabolic Activation: NONE, Method: STANDARD PLATE) “active; positive”; under setting [1], “active; positive”; (Test System: AMES SALMONELLA TYPHIMURIUM, Strain/Indicator: TA98, Metabolic Activation: RAT, LIVER, S-9, AROCLOR 1254, Method: STANDARD PLATE) “active; positive”.
For `CC(=O)ON(OCc1ccccc1)C(=O)c1ccccc1`, the mutagenic call is “active; positive” under setting [1]; “active; positive” (Test System: AMES SALMONELLA TYPHIMURIUM, Strain/Indicator: TA100, Metabolic Activation: NONE, Method: STANDARD PLATE); “active; positive” (Test System: AMES SALMONELLA TYPHIMURIUM, Strain/Indicator: TA100, Metabolic Activation: RAT, S-9, AROCLOR, Method: STANDARD PLATE).
